Reference: patent US20260184704A1, “NLRP3 INFLAMMASOME INHIBITORS AND USES THEREOF” (Insilico Medicine IP Limited, priority 2023, published 2026)

Key:
NLRP3 = target: T1, NLRP3 (Homo sapiens, UniProt Q96P20); assay: NLRP3 Enzymatic Activity ADP-Glo Assay (Example B-4); format: biochemical; conditions: hydrolysis of ATP by NLRP3; NLRP3 15 nM, ATP 1 μM; read-out: NLRP3_ADP-Glo_IC50 (nM), Example B-4
T1 construct: purchased ICE YM2306T-H06MHS
Method: Example B-4: NLRP3 Enzymatic Activity ADP-Glo Assay
NLRP3 activity test experiment, measuring the hydrolysis of NLRP3 on the substrate ATP using the ADP-Glo assay. First, after adding an inhibitor containing 0.5% DMSO with Echo, add 5 μL of NLRP3 (ICE, YM2306T-H06MHS) enzyme solution to each well, centrifuge at 1000 rpm for 1 min at room temperature and react for 10 min. Then add 5 μL of ATP (Promega, V915A) substrate solution to each well for 90 min at room temperature; NLRP3 and ATP were prepared in 50 mM HEPES, 10 mM MgCl2, 0.01% Brij-35, 1 mM EGTA, and 2 mM DTT buffers at final concentrations of 15 nM and 1 μM, respectively. Subsequently, 10 μL ADP-Glo reagent solution (Promega, V9102) was added into each assay well, centrifuged at 1000 rpm for 1 min, and then incubated at room temperature for 45 min. Finally, 20 μL ADP-Glo detection solution (Promega, V9102) is added to each well, centrifuged at 1000 rpm for 1 min and reacted for 45 min at room temperature. The luminescence signal values were read using a BMG instrument and the IC50 values were determined by fitting the data to an S-shaped dose-response curve using nonlinear regression.

[1] = system: THP-1 cells, IL-1β release; assay: IL-1β Release THP-1 Assay (Example B-3); format: cell-based; conditions: Homo sapiens; PMA-differentiated THP-1 cells, LPS then Nigericin, IL-1β by Elisa; read-out: Potency, THP-1 IL-1β, IC50 (nM), Example B-3
Method: Example B-3: IL-1β Release THP-1 Assay
THP-1 cells Culture RPMI1640 medium, 10% FBS, 1% PS, 55 uM β-Mer at 37° C. & 5% CO2 incubator.
IL-1β Release Detection • 1) Seed THP-1 in complete RPMI 1640 medium containing PMA into 96 well plate coated with poly-L-lysin incubate for 24 hours. • 2) Remove medium, wash the differentiated THP-1 cells with PBS, add FBS free RPMI 1640 medium. • 3) Add LPS and incubate for 3 hours at 37° C. & 5% CO2 incubator. • 4) Add compounds and incubate for 30 minutes at 37° C. & 5% CO2 incubator. • 5) Add Nigericin and incubate for 1 hour at 37° C. & 5% CO2 incubator. • 6) Collect supernatant to test IL-1β by Elisa.
• a) Assay robustness check with DMSO and Low control data:
[formula] • X: cpd concentration • Y: change % • Top and Bottom: Plateaus in same units as Y • logIC50: same log units as X • HillSlope: Slope factor or Hill slope

T1 sequence (Q96P20 whole entry): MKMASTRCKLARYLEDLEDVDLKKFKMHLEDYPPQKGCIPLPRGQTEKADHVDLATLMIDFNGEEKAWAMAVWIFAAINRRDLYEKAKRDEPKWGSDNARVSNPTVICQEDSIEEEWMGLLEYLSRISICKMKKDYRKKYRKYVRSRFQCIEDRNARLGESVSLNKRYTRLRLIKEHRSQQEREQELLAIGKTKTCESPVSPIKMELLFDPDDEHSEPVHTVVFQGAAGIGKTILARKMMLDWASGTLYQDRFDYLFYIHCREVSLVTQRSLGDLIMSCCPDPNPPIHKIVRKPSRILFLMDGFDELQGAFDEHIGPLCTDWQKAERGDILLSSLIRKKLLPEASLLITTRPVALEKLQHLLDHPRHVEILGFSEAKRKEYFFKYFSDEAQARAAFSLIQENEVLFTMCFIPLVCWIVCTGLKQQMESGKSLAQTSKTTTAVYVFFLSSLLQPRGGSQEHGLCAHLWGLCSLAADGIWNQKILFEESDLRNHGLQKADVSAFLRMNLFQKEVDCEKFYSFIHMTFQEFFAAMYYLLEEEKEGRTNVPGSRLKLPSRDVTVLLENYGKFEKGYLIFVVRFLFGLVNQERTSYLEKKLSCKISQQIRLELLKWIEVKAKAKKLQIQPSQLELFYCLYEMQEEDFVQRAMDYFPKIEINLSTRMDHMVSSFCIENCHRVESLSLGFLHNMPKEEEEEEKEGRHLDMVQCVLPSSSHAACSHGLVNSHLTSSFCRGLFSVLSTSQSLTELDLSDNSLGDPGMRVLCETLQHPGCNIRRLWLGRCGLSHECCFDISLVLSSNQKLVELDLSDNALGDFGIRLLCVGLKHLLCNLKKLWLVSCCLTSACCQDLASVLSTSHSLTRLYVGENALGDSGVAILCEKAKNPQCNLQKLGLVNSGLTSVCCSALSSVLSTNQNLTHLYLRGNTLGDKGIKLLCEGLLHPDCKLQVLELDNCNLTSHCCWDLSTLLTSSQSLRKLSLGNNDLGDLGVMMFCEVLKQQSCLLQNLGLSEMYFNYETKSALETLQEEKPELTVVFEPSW

IC50 (NLRP3) | IC50 [1] | SMILES
10 to 100 nM |  | Cc1c(F)c2c(c(O)c1C1=NN=C(N[C@H]3C[C@@](C)(O)C3)SC1)CCO2 [Compound 61]
10 to 100 nM | 10 to 100 nM | Cc1cc(C#N)cc(O)c1C1=NN=C(N[C@@H]2CCCN(C)C2)SC1 [Compound 37]
10 to 100 nM | < 10 nM | Cc1cc(Cl)cc(O)c1C1=NN=C(N[C@H]2C[C@@](C)(O)C2)CS1 [Compound 204]
 | 100 to 1000 nM | Cc1cc(C(F)(F)F)cc(O)c1C1=NN=C(Nc2cc[nH]n2)SC1 [Compound 22]
 | 10 to 100 nM | Cc1cc(OC(F)F)cc(O)c1C1=NN=C(N[C@@H]2CCCN(C)C2)SC1 [Compound 21]
10 to 100 nM |  | Cc1cc2c(c(O)c1C1=NN=C(N[C@H]3C[C@@](C)(O)C3)SC1)OCC2 [Compound 64]
10 to 100 nM | 10 to 100 nM | C[C@]1(O)C[C@@H](NC2=NN=C(c3c(O)cc(C(F)(F)F)cc3Cl)CS2)C1 [Compound 45]
100 to 1000 nM |  | Cc1cc(Cl)cc(O)c1C1=NN=C(N[C@H]2C[C@](C)(N)C2)CS1 [Compound 207]
10 to 100 nM | 10 to 100 nM | Cc1cc(C(F)(F)F)cc(O)c1C1=NN=C(N2CCC3CCN(C)CC32)SC1 (stereo not shown) [Compound 35]
100 to 1000 nM |  | Cc1cc2c(c(O)c1C1=NN=C(N(C)[C@@H]3CCCN(C)C3)SC1)CCO2 [Compound 55]
< 10 nM | < 10 nM | Cc1cc2sccc2c(O)c1C1=NN=C(N[C@@H]2CCCN(CCO)C2)SC1 [Compound 47]
10 to 100 nM | 100 to 1000 nM | Cc1cc(C(F)(F)F)c(F)c(O)c1C1=NN=C(N[C@H]2C[C@@](C)(O)C2)SC1 [Compound 48]
> 1000 nM |  | Cc1cc(C(F)(F)F)cc(O)c1C1=NN=C(NCCC(N)=O)SC1 [Compound 43]
< 10 nM | < 10 nM | CCN1CCC[C@@H](NC2=NN=C(c3c(C)cc4sccc4c3O)CS2)C1 [Compound 46]
 | 10 to 100 nM | Cc1cc(C(F)(F)F)cc(O)c1C1=NN=C(N[C@@H]2CCN(C)C2)SC1 [Compound 11]
10 to 100 nM | 10 to 100 nM | Cc1cc2c(c(O)c1C1=NN=C(N[C@H]3C[C@@](C)(O)C3)CS1)CCO2 [Compound 203]
> 1000 nM |  | Cc1cc2c(cc1C1=NN=C(N[C@@H]3CCCN(C)C3)SC1)CCO2 [Compound 49]
10 to 100 nM | 10 to 100 nM | Cc1cc(C(F)(F)F)cc(O)c1C1=NN=C(N[C@H]2C[C@@](C)(O)C2)C(C)(C)S1 [Compound 202]
10 to 100 nM | 10 to 100 nM | Cc1cc(C(F)(F)F)cc(O)c1C1=NN=C(N[C@H]2C[C@@](C)(O)C2)CS1 [Compound 201]
100 to 1000 nM | 100 to 1000 nM | Cc1cc(C(F)(F)F)cc(O)c1C1=NN=C(N[C@@H]2CCCN(C)C2)N(C)C1 [Compound 36]

IC50 (NLRP3) | IC50 [1] | SMILES
100 to 1000 nM |  | C[C@]1(O)C[C@@H](NC2=NN=C(c3c(O)cc(C(F)(F)F)cc3F)CS2)C1 [Compound 41]
10 to 100 nM | 10 to 100 nM | Cc1cc(Cl)cc(O)c1C1=NN=C(N[C@H]2C[C@@](C)(N)C2)CS1 [Compound 206]
100 to 1000 nM |  | Cc1cc(C#N)cc(O)c1C1=NN=C(N2CCC3CCN(C)CC32)SC1 (stereo not shown) [Compound 39]
 | 100 to 1000 nM | Cc1cc(C(F)(F)F)cc(O)c1C1=NN=C(N[C@H]2C[C@@H](O)C2)SC1 [Compound 24]
100 to 1000 nM |  | Cc1cc2c(c(O)c1C1=NN=C(N[C@H]3C[C@@](C)(O)C3)SC1)COC2 [Compound 62]
10 to 100 nM | 10 to 100 nM | Cc1cc2c(c(O)c1C1=NN=C(N[C@@H]3CCCN(CCO)C3)SC1)CCO2 [Compound 40]
 | 10 to 100 nM | Cc1cc(C(F)(F)F)cc(O)c1C1=NN=C(N[C@@H]2C[C@H](F)CN(C)C2)SC1 [Compound 9]
 | 10 to 100 nM | Cc1cc(C(F)(F)F)cc(O)c1C1=NN=C(N[C@@H]2CCC[C@H](O)C2)SC1 [Compound 7]
> 1000 nM |  | Cc1cc(C(F)(F)F)cc(O)c1C1=NN=C(N2CCC[C@@H]2[C@@H](C)O)SC1 (single isomer, unassigned) [Compound 33]
10 to 100 nM | 10 to 100 nM | Cc1cc(OC(F)F)cc(O)c1C1=NN=C(N[C@H]2C[C@@](C)(O)C2)SC1 [Compound 25]
 | 10 to 100 nM | Cc1cc(C(F)(F)F)cc(O)c1C1=NN=C(N[C@H]2C[C@](O)(C(F)(F)F)C2)SC1 [Compound 29]
10 to 100 nM |  | [2H]C([2H])([2H])c1cc2c(c(O)c1C1=NN=C(N[C@H]3C[C@@](C)(O)C3)SC1)CCO2 [Compound 71]
10 to 100 nM | 10 to 100 nM | C[C@]1(O)C[C@@H](NC2=NN=C(c3c(C(F)(F)F)cc4c(c3O)CCO4)CS2)C1 [Compound 58]
< 10 nM |  | CCN1CCC[C@@H](NC2=NN=C(c3c(C)cc4c(c3O)CCO4)CS2)C1 [Compound 54]
> 1000 nM |  | Cc1cc(C(F)(F)F)cc(O)c1C1=NN=C(N2CCC[C@@H]2[C@H](C)O)SC1 (single isomer, unassigned) [Compound 34]
 | 10 to 100 nM | Cc1cc(C(F)(F)F)cc(O)c1C1=NN=C(N[C@@H]2CCCN(C3COC3)C2)SC1 [Compound 17]
10 to 100 nM | 10 to 100 nM | Cc1cc2c(c(O)c1C1=NN=C(N[C@H]3C[C@@](C)(N)C3)SC1)CC2 [Compound 68]
 | 100 to 1000 nM | CC1SC(N[C@@H]2CCCN(C)C2)=NN=C1c1ccc(C(F)(F)F)cc1O (stereo partly shown) [Compound 5]
> 1000 nM |  | Cc1cc(C(F)(F)F)cc(O)c1C1=NN=C(N[C@@H]2CCCN(C)C2)OC1 [Compound 52]
< 10 nM | < 10 nM | Cc1cc2c(c(O)c1C1=NN=C(N[C@@H]3CCCN(C)C3)CS1)CCO2 [Compound 205]

IC50 (NLRP3) | IC50 [1] | SMILES
 | < 10 nM | CCN1CCC[C@@H](NC2=NN=C(c3c(C)cc(C(F)(F)F)cc3O)CS2)C1 [Compound 3]
10 to 100 nM | 10 to 100 nM | Cc1cc2c(c(O)c1C1=NN=C(N[C@H]3C[C@@](C)(O)C3)SC1)CCC2 [Compound 50]
10 to 100 nM | 10 to 100 nM | Cc1cc2c(c(O)c1C1=NN=C(N[C@H]3C[C@](C)(O)C3)SC1)CC2 [Compound 67]
100 to 1000 nM |  | Cc1cc2c(c(O)c1C1=NN=C(N[C@H]3C[C@](C)(N)C3)SC1)CC2 [Compound 69]
100 to 1000 nM |  | Cc1cc2c(c(O)c1C1=NN=C(N[C@H]3C[C@](C)(O)C3)SC1)CCO2 [Compound 65]
< 10 nM |  | Cc1cc2occc2c(O)c1C1=NN=C(N[C@H]2C[C@@](C)(O)C2)SC1 [Compound 72]
10 to 100 nM | < 10 nM | COc1cc(C)c(C2=NN=C(N[C@@H]3CCCN(C)C3)SC2)c(O)c1 [Compound 23]
10 to 100 nM | < 10 nM | Cc1cc(C(F)(F)F)cc(O)c1C1=NN=C(N[C@@H]2CCCN(C)C2)SC1 [Compound 1]
 | 100 to 1000 nM | Cc1cc(C(F)(F)F)cc(O)c1C1=NN=C(NC[C@@H](C)O)SC1 [Compound 26]
100 to 1000 nM |  | Cc1cc2c(c(O)c1C1=NN=C(NC34CCC(O)(CC3)C4)SC1)CCO2 [Compound 63]
10 to 100 nM | 10 to 100 nM | Cc1cc(Cl)cc(O)c1C1=NN=C(N[C@H]2C[C@@](C)(O)C2)SC1 [Compound 30]
> 1000 nM |  | Cc1cc(C(F)(F)F)cc(OC(F)F)c1C1=NN=C(N[C@H]2C[C@@](C)(O)C2)SC1 [Compound 42]
10 to 100 nM | < 10 nM | Cc1cc2c(c(O)c1C1=NN=C(N3CCC4CCN(C)CC43)SC1)CCO2 (stereo not shown) [Compound 51]
 | < 10 nM | Cc1cc(C(F)(F)F)cc(O)c1C1=NN=C(N[C@@H]2CCCN(CCO)C2)SC1 [Compound 6]
10 to 100 nM | 10 to 100 nM | C[C@]1(O)C[C@@H](NC2=NN=C(c3c(Cl)cc4c(c3O)CCO4)CS2)C1 [Compound 60]
100 to 1000 nM |  | CC#Cc1cc(C)c(C2=NN=C(N[C@@H]3CCCN(C)C3)SC2)c(O)c1 [Compound 56]
100 to 1000 nM |  | Cc1cc2c(c(O)c1C1=NN=C(N[C@]34CC[C@](O)(C3)C4)SC1)CCO2 [Compound 70]
 | < 10 nM | Cc1cc(C(F)(F)F)cc(O)c1C1=NN=C(N[C@@H]2CCCNC2)SC1 [Compound 2]
 | 10 to 100 nM | Cc1cc(C(F)(F)F)cc(O)c1C1=NN=C(N[C@@H]2C[C@H](O)CN(C)C2)SC1 (single isomer, unassigned) [Compound 16]
> 1000 nM |  | CNC(=O)CNC1=NN=C(c2c(C)cc(C(F)(F)F)cc2O)CS1 [Compound 32]

SMILES | IC50 (NLRP3) | IC50 [1]
Cc1cc(C(F)(F)F)cc(O)c1C1=NN=C(N[C@H]2CN3CCC2CC3)SC1 [Compound 20] |  | 10 to 100 nM
